What all share (assay): NCI human tumor cell panel
The test system of one assay is OVCAR-3. Conditions: OVCAR-3, read-out: Log10 LC50 (converted).
Another assay concerns SK-MEL-28. The format is cell-based. As to conditions: SK-MEL-28, read-out: Log10 LC50 (converted). An excerpt:
(§1) Considering the diversity of tumors in terms of cell type, morphology, growth rate and other cellular characteristics, the U.S. National Cancer Institute (NCI) has developed a "disease-oriented" approach to antitumor activity screening (M.R. Boyd, in "Principle of Practice of Oncology" J.T. Devita, S. Hellman, S.A. Rosenberg (Eds.) Vol. 3, PPO Update, No. 10, 1989). This in vitro prescreening system is based on the measurement of antitumor cytotoxicity against human tumor cell line panels consisting of approximately 60 cell lines of major human tumors (including leukemia and slower growing tumor cells such as lung, colon, breast, skin, kidney, etc.). The most important advantage of the new in vitro screening panels is the opportunity to identify compounds that are selectively more cytotoxic to cells of slowly growing solid tumors than to rapidly growing leukemia cells.
(§2) The cytotoxic activity of the present selenophene compounds have been measured utilizing two different assays or screens. The first screen measures the cytotoxicity against a panel of sixty different human tumor cell lines. This assay provides data regarding the general cytotoxicity of an individual compound. In particular this type of assay is useful in identifying compounds which have enhanced cytotoxic activity against slow growing tumors as compared to faster growing tumor cells such as leukemia tumor cell lines. The identification of such compounds is critical since previously identified antitumor agents have low cytotoxic activity against slower growing tumors. […] The specificity of a cytotoxic compound for tumor cell lines relative to normal cells is an important characteristic of an effective antitumor agent.
(§3) Antitumor cytotoxicity data generated from the National Cancer Institute human tumor cell panels can also be expressed in a graphic pattern (mean graph) to display differential cell growth inhibition (K.D. Paull, R.H. Shoemaker, L. Hodes, A. Monks, D.A. Scudiero, L. Rubinstein, J. Plowman and M.R. Boyd, J. Nail. Cancer Inst., 81, 1088, 1989.) In the mean graph, the arithmetic mean of the logarithm of the GI50 (50% growth inhibition), TGI (total growth inhibition) or LC50 (50% lethal concentration) values is used as an anchor point. […] The length of a bar is indicative of differential cytotoxicity against a specific type of tumor cells or tumor panels.
(§4) The antitumor cytotoxicity of the selenophene compounds tested in those in vitro assays was measured by a microculture assay using either a 3-(4,5-dimethylthiazol-2-yl)-2,5-diphenyltetrazolium bromide (MTT) or sulforhodamine B (SRB) based assay. [M.R. Boyd in "Principles and Practices of Oncology," V.T. DeVita, Jr.]. The experiments were conducted at Purdue University in 96-well microtiter plates and the cytotoxic effects of the selenophene compounds on those cells were measured by cell count using a Coulter Z.F. counter (Hialeah, FL). The results are expressed as GI50, the concentration of drug at which cell numbers are reduced to 50% of control cell culture [T.C.K. Chan, C.J. Chang, N.M. Koonchanok and R.L. Geahlen, Biochem. Biophys. Res. Commun., 193, 1152, (1993); S. Hellman and S.A. Rosenberg (Eds.), Vol. 3, PPO Updates, Number 10, (1989).]
(§5) This in vitro microculture assay has an advantage over in vivo assays in that results are obtained within a week as opposed to several months. The MTT assay is based on the production of a dark blue formazan product by dehydrogenase in the mitochondria of live tumor cells after exposure to drug for 6 days [M.C. Alley, D.A. Scudiero, A. Monks, M.L. Hursey, M.J. Czerwinski, D.L. Fine, B.J. Abbott, J.G. Mayo, R.H. Shoemaker and M.R. Boyd, Cancer Res., 48, 589, 1988]. Thus, only live cells are stained and can be measured at 570 nm. […]

Another assay concerns UACC-62. In kind it is cell-based. Conditions: UACC-62, read-out: Log10 LC50 (converted).
From the text: as §1, §2, §3, §4, §5

In another assay the test system is HCT-116. In kind it is cell-based. Conditions: HCT-116, read-out: Log10 LC50 (converted).
From the text: as §1, §2, §3, §4, §5

The next assay relates to BT-549. The format is cell-based. As to conditions: BT-549, read-out: Log10 LC50 (converted).
From the text: as §1, §2, §3, §4, §5

The test system of another assay is NCI-H322M. The format is cell-based. As to conditions: read-out: Log10 LC50 (converted).
From the text: as §1, §2, §3, §4, §5

A further assay concerns HOP-92. The format is cell-based. As to conditions: HOP-92, read-out: Log10 LC50 (converted).
From the text: as §1, §2, §3, §4, §5

In a further assay the test system is PC-3. The format is cell-based. As to conditions: PC-3, read-out: Log10 LC50 (converted).
From the text: as §1, §2, §3, §4, §5

The next assay deals with HS 578T. The format is cell-based. Conditions: read-out: Log10 LC50 (converted).
From the text: as §1, §2, §3, §4, §5

For another assay, the system named is MDA-N. In kind it is cell-based. As to conditions: read-out: Log10 LC50 (converted).
From the text: as §1, §2, §3, §4, §5

In a further assay the test system is NCI-H522. In kind it is cell-based. As to conditions: NCI-H522, read-out: Log10 LC50 (converted).
From the text: as §1, §2, §3, §4, §5

The next assay deals with U251. In kind it is cell-based. As to conditions: U-251, read-out: Log10 LC50 (converted).
From the text: as §1, §2, §3, §4, §5

The next assay concerns SN12C. In kind it is cell-based. Conditions: read-out: Log10 LC50 (converted).
From the text: as §1, §2, §3, §4, §5

The subject of another assay is HOP-62. The format is cell-based. As to conditions: HOP-62, read-out: Log10 LC50 (converted).
From the text: as §1, §2, §3, §4, §5

Another assay has as its system DU-145. In kind it is cell-based. As to conditions: DU-145, read-out: Log10 LC50 (converted).
From the text: as §1, §2, §3, §4, §5

Another assay concerns A498. In kind it is cell-based. As to conditions: A498, read-out: Log10 LC50 (converted).
From the text: as §1, §2, §3, §4, §5

Another assay relates to KM12. The format is cell-based. As to conditions: KM12, read-out: Log10 LC50 (converted).
From the text: as §1, §2, §3, §4, §5

The next assay has as its system CCRF-CEM. In kind it is cell-based. Conditions: read-out: Log10 LC50 (converted).
From the text: as §1, §2, §3, §4, §5

For a further assay, the system named is NCI-H460. The format is cell-based. As to conditions: NCI-H460, read-out: Log10 LC50 (converted).
From the text: as §1, §2, §3, §4, §5

Another assay concerns ACHN. The format is cell-based. As to conditions: read-out: Log10 LC50 (converted).
From the text: as §1, §2, §3, §4, §5

The test system of another assay is EKVX. Conditions: for CC50: read-out: Log10 LC50 (converted).
Another assay concerns SNB-75. As to conditions: SNB-75, read-out: Log10 LC50 (converted).

On to `O=Cc1ccc(-c2ccc(-c3ccc(C=O)[se]3)s2)s1`, for which the CC50 with OVCAR-3, in the assay on SK-MEL-28, in the assay on UACC-62, in the assay on HCT-116, with BT-549 and with HOP-92 was over 100 µM in each case. The CC50 in the assay on PC-3, in the assay with HS 578T, with NCI-H522, with U251, in the assay with SN12C and in the assay on HOP-62 was over 100 µM each time. Besides, the CC50 with DU-145 was over 100 µM; with A498, 0.331 µM; in the assay with KM12, over 100 µM; in the assay with CCRF-CEM, over 100 µM; in the assay on ACHN, over 100 µM; with EKVX it was over 100 µM. In addition, the CC50 in the assay with SNB-75 is over 100 µM. Besides, the LC50 (concentration killing 50% of cells) in the assay with NCI-H322M and in the assay on NCI-H460 was over 100 µM in each case. The LC50 (50% lethal concentration) in the assay on MDA-N was over 100 µM.
In the case of `OCc1ccc(-c2ccc(-c3ccc(CO)[se]3)s2)s1`, the CC50 was 50.1 µM with OVCAR-3; over 100 µM in the assay on SK-MEL-28; over 100 µM with UACC-62; 81.3 µM in the assay with HCT-116; over 100 µM in the assay with BT-549; over 100 µM in the assay on HOP-92. Further, the CC50 with PC-3 is over 100 µM; with HS 578T, over 100 µM; in the assay on NCI-H522, over 100 µM; in the assay with U251, 72.4 µM; in the assay on SN12C, over 100 µM; with HOP-62, 85.1 µM. Moreover, the CC50 was over 100 µM with DU-145; 0.0724 µM with A498; over 100 µM with KM12; over 100 µM with CCRF-CEM; over 100 µM with ACHN; over 100 µM in the assay with EKVX. Besides, in the assay on SNB-75, the CC50 was over 100 µM. For the same compound, the values for the LC50 (concentration killing 50% of cells) with NCI-H322M and with NCI-H460 were over 100 µM and 28.8 µM, respectively. For the same compound, in the assay with MDA-N, the LC50 (50% lethal concentration) was over 100 µM.
On to `OCc1ccc(-c2ccc(-c3ccc[se]3)[se]2)[se]1`, for which the CC50 in the assay on OVCAR-3 was 6.92 µM; with SK-MEL-28 it was 53.7 µM; in the assay on UACC-62 it was 67.6 µM; with HCT-116, 32.4 µM; in the assay with HOP-92, 38 µM; in the assay with PC-3, 36.3 µM. Also, the CC50 in the assay with NCI-H522 is 23.4 µM; with U251, 55 µM; with HOP-62, 44.7 µM; in the assay on DU-145, 46.8 µM; in the assay with A498 it was 0.692 µM; in the assay with KM12, 52.5 µM. The CC50 was over 100 µM in the assay with CCRF-CEM, 42.7 µM with EKVX and over 100 µM with SNB-75. Moreover, the LC50 (concentration killing 50% of cells) in the assay on NCI-H322M is 47.9 µM; in the assay with NCI-H460 it was 22.9 µM. In addition, the LC50 (50% lethal concentration) with MDA-N was over 100 µM.
Consider `OCc1ccc(-c2ccc(-c3ccc(CO)s3)[se]2)s1`, for which the CC50 in the assay with OVCAR-3, in the assay on SK-MEL-28, in the assay with UACC-62, in the assay on HCT-116, in the assay on BT-549 and with HOP-92 was over 100 µM each time. The CC50 in the assay with PC-3, in the assay on HS 578T, with NCI-H522, in the assay with U251, in the assay on SN12C and in the assay with HOP-62 was over 100 µM each time. In addition, the CC50 in the assay with DU-145 is over 100 µM; with A498, 0.158 µM; in the assay with KM12 it was over 100 µM; with CCRF-CEM, over 100 µM; with ACHN it was over 100 µM; with EKVX it was over 100 µM. The LC50 (concentration killing 50% of cells) with NCI-H322M and in the assay on NCI-H460 was over 100 µM throughout. For the same compound, in the assay with MDA-N, the LC50 (50% lethal concentration) is over 100 µM.
Consider `OCc1ccc(-c2ccc(-c3ccc(CO)[se]3)s2)[se]1`, for which the CC50 in the assay with OVCAR-3 is over 100 µM; with SK-MEL-28 it was over 100 µM; with UACC-62, over 100 µM; with HCT-116, over 100 µM; in the assay with BT-549, over 100 µM; in the assay with HOP-92 it was 0.324 µM. Also, the CC50 in the assay on PC-3 is over 100 µM; in the assay with HS 578T, over 100 µM; with U251, 46.8 µM; in the assay on SN12C, over 100 µM; with HOP-62, over 100 µM; in the assay with DU-145 it was over 100 µM. Also, the CC50 was 0.0955 µM with A498; over 100 µM in the assay with KM12; over 100 µM in the assay on CCRF-CEM; over 100 µM in the assay with ACHN; over 100 µM in the assay with EKVX; over 100 µM with SNB-75. Also, the LC50 (concentration killing 50% of cells) with NCI-H322M and in the assay with NCI-H460 was over 100 µM throughout. Besides, in the assay on MDA-N, the LC50 (50% lethal concentration) is over 100 µM.
Consider `O=Cc1ccc(-c2ccc(-c3ccc(C=O)[se]3)s2)[se]1`, for which the CC50 in the assay with OVCAR-3, in the assay with SK-MEL-28, in the assay with UACC-62, with HCT-116, in the assay on BT-549 and in the assay on HOP-92 was over 100 µM throughout. Further, the CC50 in the assay with PC-3, with HS 578T, with NCI-H522, in the assay on U251, in the assay with SN12C and in the assay with HOP-62 was over 100 µM each time. The CC50 with DU-145, in the assay with KM12, in the assay with CCRF-CEM, in the assay with ACHN, with EKVX and with SNB-75 was over 100 µM in each case. The LC50 (concentration killing 50% of cells) in the assay with NCI-H322M and with NCI-H460 was over 100 µM throughout. In the assay on MDA-N, the LC50 (50% lethal concentration) is over 100 µM. In the assay on EKVX (read-out: Log10 TGI), the IC (TGI) was over 100 µM.

For the origin of these results see patent EP1021178B1, “SELENOPHENE ANTI-TUMOR AGENTS” (Purdue Research Foundation, priority 1996, dated 1997).
